From US9334267B2, “RAF inhibitor compounds” (Deciphera Pharmaceuticals, LLC, priority 2012, dated 2016)

How the values were obtained:
Sk-Mel-2 cells = assay: SK-Mel-2 cell proliferation assay (resazurin); type: cell-based; details: Homo sapiens, N-Ras mutation B-Raf wild type, read-out: Cell Proliferation Inhibition IC50, nM SK-Mel-2
HT-29 cells = assay: HT-29 cell proliferation assay (resazurin); type: cell-based; details: Homo sapiens, V600E mutation, read-out: Cell Proliferation Inhibition IC50, nM HT-29
Method: HT-29 cells (catalog #HTB-38) are obtained from the American Type Culture Collection (ATCC, Manassas, Va.). Briefly, cells are grown in McCoy's 5A supplemented with 10% characterized fetal bovine serum (Invitrogen, Carlsbad, Calif.), and 1% Penicillin/Streptomycin/L-Glutamine at 37 degrees Celsius, 5% CO2, and 95% humidity. Cells are allowed to expand until reaching 75-90% confluency at which point they are subcultured or harvested for assay use. A serial dilution of test compound is dispensed into a 384-well black clear bottom plate in triplicate. One thousand two-hundred fifty cells are added per well in 50 μL complete growth medium in the 384-well plate. Plates are incubated for 67 hours at 37 degrees Celsius, 5% CO2, and 95% humidity. At the end of the incubation period, 10 μL of a 440 μM solution of resazurin (Sigma, St. Louis, Mo.) in PBS is added to each well of the plate and plates are incubated for an additional 5 hours at 37 degrees Celsius, 5% CO2, and 95% humidity. Plates are read on a Synergy2 reader (Biotek, Winooski, Vt.) using an excitation of 540 nm and an emission of 600 nm. Data is analyzed using Prism software (Graphpad, San Diego, Calif.) to calculate IC50 values.
The A375, HT-29, and Colo-205 cells (ATCC) harbor a V600E mutation.

human B-Raf V600E = biological target: T1, human B-Raf V600E (Homo sapiens, UniProt P15056, V600E); assay: Enzymatic assay of B-Raf V600E kinase activity (Raf/MEK1 ATPase, coupled PK/LDH, A340); type: biochemical; details: read-out: Enzyme IC50, nM B-Raf V600E
T1 construct: B-RafV600E (residues 433-726 containing V600E mutation) containing an N-terminal purification tag is expressed and purified; made in house
Method: Test compounds are evaluated for their inhibitory activities against one or more of human wild type B-Raf, human wild type C-Raf, human B-Raf V600E, human B-Raf V600E+T529I or human B-Raf V600E+G468A. T529I is a threonine to isoleucine B-Raf gatekeeper mutation and G468A is a B-Raf secondary mutation at G1403C in exon 11. The enzymatic assays of B-Raf, C-Raf and B-Raf mutations evaluate a property of Raf and MEK1 complex, which in the presence of ATP, catalyzes an enhanced ATP hydrolysis (Rominger, et al, Arch. Biochem. Biophys. 2007, 464: 130-137; US Patent Publication No. 2006/0211073). The ADP formed is monitored by the well-known coupled PK/LDH (pyruvate kinase/lactate dehydrogenase) system in the form of NADH oxidation, which can be monitored and detected spectrophotometrically by absorbance at 340 nm (A340; for principal of the method see Schindler et al, Science, 2000, 289: 1938-1942). Raf activated MEK1 ATPase activity is a property shared by all forms of Raf proteins.
B-RafV600E (residues 433-726 containing V600E mutation) containing an N-terminal purification tag is expressed and purified essentially as described previously (Wan et al, Cell, 2004, 116, 855-867).
Test compounds are evaluated for their inhibitory activities against one or more of wild type B-Raf, wild type C-Raf, B-Raf V600E, B-Raf V600E+T529I and B-Raf V600E+G468A. T529I is a B-Raf gatekeeper mutation and G468A is a B-Raf secondary mutation. The enzymatic assays of B-Raf, C-Raf and B-Raf mutations evaluate a property of Raf and MEK1 complex, which in the presence of ATP, catalyzes an enhanced ATP hydrolysis (Rominger, et al, Arch. Biochem. Biophys. 2007, 464: 130-137). The ADP formed is monitored by the well-known coupled PK/LDH (pyruvate kinase/lactate dehydrogenase) system in the form of NADH oxidation, which can be monitored and detected by absorbance at 340 nm (A340; for principal of the method see Schindler et al, Science, 2000, 289: 1938-1942). Raf activated MEK1 ATPase activity is a property shared by all forms of Raf proteins. In the B-Raf wild type enzymatic assay, the reaction mixture contains 1.2 nM B-Raf, 30 nM MEK1, 1000 uM ATP, 3.5 units (per 100 ul) of PK, 5 units (per 100 ul) of LDH, 1 mM phosphoenol pyruvate (PEP), and 280 uM of NADH. In the C-Raf assay, the reaction mixture contains 0.6 nM C-Raf, 26 nM MEK1, 2000 uM ATP, and the same amount of PK, LDH, PEP and NADH as above. In the B-Raf V600E assay, the reaction mixture contains […] B-Raf V600E, 26 nM MEK1, 200 uM ATP and the same amount of PK, LDH, PEP and NADH as above. In the B-RafV600E+T529I assay, the reaction mixture contains 6.2 nM B-Raf V600E+T529I, 30 nM MEK1, 200 uM ATP and the same amount of PK, LDH, PEP and NADH as above. In the B-Raf V600E+G468A assay, the reaction mixture contains 3.5 nM B-Raf, 30 nM MEK1, 200 uM ATP and the same amount of PK, LDH, PEP and NADH as above. All assays are started by mixing the above mixture with test compound and monitoring at A340 continuously for approximately 5 hr. […] In the aforementioned assays, the enzyme constructs can be screened prior to or after cleavage of the N-terminal purification tag.

human wild type c-KIT = biological target: T2, human wild type c-KIT (Homo sapiens, UniProt P10721); assay: Enzymatic assay of c-Kit kinase activity (poly E4Y phosphorylation, coupled PK/LDH); type: biochemical
T2 construct: GST (N); made in house
Text: c-Kit is an important oncogene, and its overexpression and genetic mutations often occur in melanoma and gastrointestinal stromal tumor (GIST) patients. In the c-Kit enzymatic assay, the phosphorylation of poly E4Y by ATP catalyzed by human c-Kit is monitored spectrophotometrically. The ADP produced from the kinase reaction is coupled to pyruvate kinase/lactate dehydrogenase (PK/LDH) reactions where NAD is formed from pyruvate and NADH. NADH can be detected by absorbance at 340 nm, as described above for enzymatic assays of kinase activities of B-Raf, C-Raf and B-Raf mutations.
The assay reaction mixture includes 6 nM human wild type c-KIT, 1 mg/mL Poly (Glu,Tyr) (Sigma), 1 mM Phosphoenol-pyruvate, 280 μM NADH, 5 U/3.5 U (per 100 ul) Pyruvate Kinase/Lactate Dehydrogenase, 85 mM Tris, pH 7.5, 17 mM MgCl2, 0.0042% Triton® X-100, 0.005% BSA, 1% DMSO. Test compound is incubated with the reaction mixture for 0.5 hour before adding 200 μM ATP to start the reaction at 30° C.

T1 sequence (P15056 433-726 V600E): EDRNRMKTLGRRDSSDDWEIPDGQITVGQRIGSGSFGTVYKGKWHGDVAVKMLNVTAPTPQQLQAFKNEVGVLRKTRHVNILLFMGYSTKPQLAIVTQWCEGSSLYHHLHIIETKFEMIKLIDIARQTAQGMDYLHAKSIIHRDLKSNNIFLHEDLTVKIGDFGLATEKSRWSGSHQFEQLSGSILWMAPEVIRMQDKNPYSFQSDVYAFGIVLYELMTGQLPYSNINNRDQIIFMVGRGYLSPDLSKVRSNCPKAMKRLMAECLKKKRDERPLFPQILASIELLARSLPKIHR
T2 sequence (P10721 26-976): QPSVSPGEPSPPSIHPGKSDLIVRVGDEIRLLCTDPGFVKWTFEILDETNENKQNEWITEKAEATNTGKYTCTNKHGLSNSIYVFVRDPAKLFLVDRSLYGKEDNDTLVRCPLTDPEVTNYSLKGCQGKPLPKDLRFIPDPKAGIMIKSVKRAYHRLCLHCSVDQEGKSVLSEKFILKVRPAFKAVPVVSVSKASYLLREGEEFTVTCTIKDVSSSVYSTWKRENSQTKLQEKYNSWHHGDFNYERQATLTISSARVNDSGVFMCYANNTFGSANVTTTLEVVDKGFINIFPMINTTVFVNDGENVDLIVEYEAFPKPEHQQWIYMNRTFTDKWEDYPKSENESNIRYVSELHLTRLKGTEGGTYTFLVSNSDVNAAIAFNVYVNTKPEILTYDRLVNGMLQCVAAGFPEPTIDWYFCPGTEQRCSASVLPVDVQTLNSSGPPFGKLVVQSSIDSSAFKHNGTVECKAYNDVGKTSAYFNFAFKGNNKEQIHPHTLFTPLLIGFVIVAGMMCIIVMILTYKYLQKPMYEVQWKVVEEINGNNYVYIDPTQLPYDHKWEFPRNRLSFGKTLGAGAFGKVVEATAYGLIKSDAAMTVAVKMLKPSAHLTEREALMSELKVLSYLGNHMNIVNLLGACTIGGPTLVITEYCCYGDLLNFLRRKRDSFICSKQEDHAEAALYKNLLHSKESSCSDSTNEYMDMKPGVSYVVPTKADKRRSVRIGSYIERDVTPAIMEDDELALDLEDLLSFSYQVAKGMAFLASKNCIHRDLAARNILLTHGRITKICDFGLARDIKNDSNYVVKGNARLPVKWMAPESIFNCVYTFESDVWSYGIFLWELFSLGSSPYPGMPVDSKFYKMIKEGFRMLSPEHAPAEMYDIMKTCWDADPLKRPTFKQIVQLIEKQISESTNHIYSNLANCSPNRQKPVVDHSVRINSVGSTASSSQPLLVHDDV

Row | IC50 (Sk-Mel-2 cells) [nM] | IC50 (HT-29 cells) [nM] | IC50 (human B-Raf V600E) [nM] | IC50 (human wild type c-KIT) [µM] | SMILES
1 | 100 to 1000 | < 100 | < 150 | – | CNc1ncc2cc(-c3cc(NC(=O)NC[C@H](O)C(C)(C)C)c(F)cc3C)cnc2n1 [Example 18, 1-[2-Fluoro-4-methyl-5-(2-methylaminopyrido[2,3-d]pyrimidin-6-yl)phenyl]-3-[(2R)-2-hydroxy-3,3-dimethyl-butyl]urea]
2 | < 100 | < 100 | < 150 | < 0.15 | CNc1ncc2cc(-c3cc(NC(=O)NC4CC(C)(C)C4)c(F)cc3C)c(C)nc2n1 [Example 6, 1-(3,3-Dimethylcyclobutyl)-3-(2-fluoro-4-methyl-5-(7-methyl-2-(methylamino)pyrido[2,3-d]pyrimidin-6-yl)phenyl)urea]
3 | 1000 to 10000 | 100 to 1000 | < 150 | < 0.15 | Cc1cc(F)c(NC(=O)NCCC(C)(C)F)cc1-c1cc2cnc(NCCO)nc2nc1C [Example 29, 1-(3-Fluoro-3-methylbutyl)-3-(2-fluoro-5-(2-((2-hydroxyethyl)amino)-7-methylpyrido[2,3-d]pyrimidin-6-yl)-4-methylphenyl)urea]
4 | 100 to 1000 | 100 to 1000 | < 150 | < 0.15 | CNc1ncc2cc(-c3cc(NC(=O)NCC(O)C(C)(C)C)c(F)cc3F)c(C)nc2n1 (stereo not drawn) [Example 11, 1-[2,4-Difluoro-5-(7-methyl-2-methylamino-pyrido[2,3-d]pyrimidin-6-yl)phenyl]-3-(2-hydroxy-3,3-dimethyl-butyl)urea]
5 | 100 to 1000 | < 100 | < 150 | < 0.15 | CNc1ncc2cc(-c3cc(NC(=O)NCC(O)C(C)(C)C)c(F)cc3C)c(C)nc2n1 (stereo not drawn) [Example 15, 1-[2-Fluoro-4-methyl-5-(7-methyl-2-methylamino-pyrido[2,3-d]pyrimidin-6-yl)phenyl]-3-(2-hydroxy-3,3-dimethyl-butyl)urea]
6 | < 100 | < 100 | < 150 | < 0.15 | CNc1ncc2cc(-c3cc(NC(=O)NC4CC(C)(C)C4)c(F)cc3F)c(C)nc2n1 [Example 7, 1-(2,4-Difluoro-5-(7-methyl-2-(methylamino)pyrido[2,3-d]pyrimidin-6-yl)phenyl)-3-(3,3-dimethylcyclobutyl)urea]
7 | 100 to 1000 | < 100 | < 150 | < 0.15 | COCCNc1ncc2cc(-c3cc(NC(=O)NCCC(C)(C)C)c(F)cc3C)c(C)nc2n1 [Example 5, 1-(3,3-Dimethylbutyl)-3-(2-fluoro-5-(2-((2-methoxyethyl)amino)-7-methylpyrido[2,3-d]pyrimidin-6-yl)-4-methylphenyl)urea]

Further lines, the molecule ahead of its results:

Row | SMILES | IC50 (Sk-Mel-2 cells) [nM] | IC50 (HT-29 cells) [nM] | IC50 (human B-Raf V600E) [nM] | IC50 (human wild type c-KIT) [µM]
8 | Cc1cc(F)c(NC(=O)NCCC(C)(C)F)cc1-c1cc2cnc(N)nc2nc1C [Example 28, 1-(5-(2-Amino-7-methylpyrido[2,3-d]pyrimidin-6-yl)-2-fluoro-4-methylphenyl)-3-(3-fluoro-3-methylbutyl)urea] | 1000 to 10000 | 100 to 1000 | < 150 | < 0.15
9 | CNc1ncc2cc(-c3cc(NC(=O)NCCC4(C)CC4)c(F)cc3C)c(C)nc2n1 [Example 24, 1-(2-Fluoro-4-methyl-5-(7-methyl-2-(methylamino)pyrido[2,3-d]pyrimidin-6-yl)phenyl)-3-(2-(1-methylcyclopropyl)ethyl)urea] | 100 to 1000 | < 100 | < 150 | < 0.15
10 | CNc1ncc2cc(-c3ccc(F)c(NC(=O)NCCC(C)(C)C#N)c3)c(C)nc2n1 [Example 13, 1-(3-Cyano-3-methylbutyl)-3-(2-fluoro-5-(7-methyl-2-(methylamino)pyrido[2,3-d]pyrimidin-6-yl)phenyl)urea] | 100 to 1000 | 100 to 1000 | < 150 | < 0.15
11 | Cc1cc(F)c(NC(=O)NCCC(C)(C)C)cc1-c1cc2cnc(NCCN3CCOCC3)nc2nc1C [Example 21, 1-(3,3-Dimethylbutyl)-3-(2-fluoro-4-methyl-5-(7-methyl-2-((2-morpholinoethyl)amino)pyrido[2,3-d]pyrimidin-6-yl)phenyl)ure] | 100 to 1000 | < 100 | < 150 | < 0.15
12 | CNc1ncc2cc(-c3cc(NC(=O)NCCC(C)(C)F)c(F)cc3C)cnc2n1 [Example 34, 1-(3-Fluoro-3-methyl-butyl)-3-[2-fluoro-4-methyl-5-(2-methylaminopyrido[2,3-d]pyrimidin-6-yl)phenyl]urea] | 100 to 1000 | < 100 | < 150 | < 0.15
13 | CNc1ncc2cc(-c3cc(NC(=O)NCCC(C)(C)C)c(F)cc3F)cnc2n1 [Example 36, 1-(2,4-Difluoro-5-(2-(methylamino)pyrido[2,3-d]pyrimidin-6-yl)phenyl)-3-(3,3-dimethylbutyl)urea methanesulfonate] | 1000 to 10000 | 100 to 1000 | < 150 | < 0.15
14 | CNc1ncc2cc(-c3cc(NC(=O)NC[C@@H](O)C(C)(C)C)c(F)cc3C)cnc2n1 [Example 19, 1-[2-fluoro-4-methyl-5-(2-methylaminopyrido[2,3-d]pyrimidin-6-yl)phenyl]-3-[(2S)-2-hydroxy-3,3-dimethyl-butyl]urea] | 100 to 1000 | 100 to 1000 | < 150 | –
